Reference: paper PMC11423305, “Structure-Based Design of CBP/EP300 Degraders: When Cooperativity Overcomes Affinity” (JACS Au, 2024)
Like-named read-outs stand apart in the source and are kept apart here.

Tests used:
[1] = target: CRBN and CBP catalytic core (Homo sapiens, UniProt Q92793+Q96SW2); assay: FluoPPI cellular ternary complex formation, CBP catalytic core; format: cell-based; details: U2OS cells, 6 h
CBP-BRD = CBP-BRD (Homo sapiens, UniProt Q92793); assay: TR-FRET competition with acetylated peptide binding to CBP-BRD, with and without CRBN (cooperativity); design: GST-CBP (human, residues 1081-1197); made in house; host or cells: Rosetta (DE3) cells (E. coli)
EP300-BRD = target: T1, EP300-BRD (Homo sapiens, UniProt Q09472); assay: BROMOscan ligand binding site-directed competition assay, EP300
T1 construct: T7 phage display fusion with DNA tag for qPCR; purchased Eurofins Discovery (BROMOscan service); host or cells: E. coli infected with T7 phage
T1 sequence (Q09472 1049-1156 limits assumed): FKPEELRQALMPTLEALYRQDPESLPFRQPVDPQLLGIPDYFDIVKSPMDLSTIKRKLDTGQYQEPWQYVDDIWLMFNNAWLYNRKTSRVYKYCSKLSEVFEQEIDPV
Method: 2. Methods and General Procedures […]
KD values were determined using BROMOscan™ technology, carried out by Eurofins […]
Discovery according to their standard protocol. Briefly E. coli were infected with T7 phage […]
strains displaying bromodomains and bromodomain protein was subsequently purified […]
through lysis, centrifugation and filtration. Affinity resins were generated by incubation of […]
streptavidin-coated magnetic beads with biotinylated small molecules or acetylated […]
peptide ligands. Binding reactions were assembled by combining the bromodomains and […]
liganded affinity beads in binding buffer (17 % SeaBlock, 0.33x PBS, 0.04 % Tween 20, […]
0.02 % BSA, 0.004 % sodium azide and 7.4 mM DTT) with compounds (11-point, 3-fold […]
dilution series) added to give a final DMSO concentration of 0.09 %. Assay plates were […]
incubated for 1 h, prior to washing and elution of beads. The bromodomain concentration […]
in the eluates was measured by qPCR of the DNA tag on the bromodomain.
KD values were calculated with a standard dose-response curve fitted using the Hill […]
Response = Background + Signal − Background […]
The Hill Slope was set to -1 and curves fitted using a non-linear least square fit with the Levenberg-Marquardt algorithm.
Ligand efficiency (LE) was calculated as follows: LE = 1.4(pIC50)/N

CRBN and CBP-BRD = CRBN and CBP-BRD (Homo sapiens, UniProt Q92793+Q96SW2); assay: FluoPPI cellular ternary complex formation, CBP-BRD; format: cell-based; details: U2OS cells, 6 h
CRBN and CBP-BRD, sequence (Q92793 1081-1211): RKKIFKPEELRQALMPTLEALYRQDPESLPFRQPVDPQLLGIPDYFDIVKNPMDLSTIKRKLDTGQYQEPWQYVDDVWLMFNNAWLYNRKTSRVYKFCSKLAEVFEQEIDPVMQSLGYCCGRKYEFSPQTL
CRBN and CBP-BRD, sequence (Q96SW2 whole entry): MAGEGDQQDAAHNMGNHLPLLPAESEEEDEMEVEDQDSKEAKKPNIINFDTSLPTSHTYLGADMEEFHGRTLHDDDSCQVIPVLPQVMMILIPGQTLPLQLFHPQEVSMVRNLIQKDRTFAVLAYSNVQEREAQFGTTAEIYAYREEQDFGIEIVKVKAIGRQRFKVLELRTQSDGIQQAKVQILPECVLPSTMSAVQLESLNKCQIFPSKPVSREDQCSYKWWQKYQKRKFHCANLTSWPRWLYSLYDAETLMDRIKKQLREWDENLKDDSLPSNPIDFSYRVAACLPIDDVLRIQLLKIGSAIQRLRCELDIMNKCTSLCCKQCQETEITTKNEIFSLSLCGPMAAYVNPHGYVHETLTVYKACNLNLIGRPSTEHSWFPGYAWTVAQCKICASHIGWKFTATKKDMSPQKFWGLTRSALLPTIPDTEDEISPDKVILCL

[2] = tested on: crebbp and ep300 expression; assay: Gene expression analysis by RT-qPCR in LP1 cells; format: cell-based; details: 16 h, 1 μM, normalized to hprt
Method: cooperativity factor (α) was defined as the ratio of the IC50 values in the absence and […]
For the ternary complex experiments, the final assay composition was: 0.1 % DMSO, 5 nM GST-CBP, 5 nM CRBN-Avi(biotin), 100 mM KF, 0.625 nM XL665-Streptavidin conjugate and 0.8 nM anti-GST mAb – Eu3+-cryptate. The maximal control contained 40 nM dCBP-1, the blank contained no PROTAC. Hook curves were generated by normalization to the maximal control.
LP1 cells were cultured in DMEM (Gibco, 41966-029) supplemented with 15 % FBS (Sigma, F9665); MM1S and LNCaP cells in RPMI 1640 ATCC modification (Gibco, […]
DMEM/F12 (Gibco, 11320074) supplemented with 1 % non-essential amino acids […]
Quantification of CBP/EP300 degradation by Western blotting
LP1 cells plated on 6 well plates were treated with the stated compounds at a final concentration of 0.1 % DMSO for the stated time. […] Protein concentrations were determined using the Pierce ™ BCA Protein Assay Kit (Thermo Scientific, 23227) and equal amounts were separated on 4-12 % ExpressPl us™ PAGE gels (GenScript, M41215). […]
SuperSignal™ West Pico PLUS Chemiluminescent Substrate (Thermo Scientific, 34580) and the Vilber Fusion-FX7 imager. Bands were quantified using ImageJ software and protein levels normalized to protein from DMSO treated cells run on the same membrane. […]

CRBN and CBP catalytic core, sequence (Q92793 1081-1700): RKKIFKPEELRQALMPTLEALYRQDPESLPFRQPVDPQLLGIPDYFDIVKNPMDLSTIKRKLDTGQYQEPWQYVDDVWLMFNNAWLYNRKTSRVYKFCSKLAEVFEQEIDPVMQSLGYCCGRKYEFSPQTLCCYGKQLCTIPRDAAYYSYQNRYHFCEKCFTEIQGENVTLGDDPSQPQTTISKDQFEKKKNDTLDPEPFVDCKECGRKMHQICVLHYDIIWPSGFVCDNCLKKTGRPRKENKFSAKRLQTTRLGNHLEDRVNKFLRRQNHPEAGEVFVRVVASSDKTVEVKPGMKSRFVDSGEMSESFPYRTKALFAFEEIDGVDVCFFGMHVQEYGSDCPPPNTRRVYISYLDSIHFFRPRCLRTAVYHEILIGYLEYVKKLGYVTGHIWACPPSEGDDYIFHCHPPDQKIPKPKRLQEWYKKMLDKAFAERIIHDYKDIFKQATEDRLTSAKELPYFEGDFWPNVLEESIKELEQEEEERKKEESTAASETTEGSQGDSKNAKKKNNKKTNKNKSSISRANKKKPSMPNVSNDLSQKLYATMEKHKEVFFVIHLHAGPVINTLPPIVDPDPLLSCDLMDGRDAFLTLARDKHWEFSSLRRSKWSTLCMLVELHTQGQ
CRBN and CBP catalytic core, sequence (Q96SW2 whole entry, the tested form may be a part): as the sequence (Q96SW2 whole entry) above

ternary complex formation in cells with CBP catalytic core [1]: able to induce ternary complex formation
IC50 (CBP-BRD; absence of CRBN, read-out: CBP-BRD IC50 (binary, IC50[control])): 150 nM
IC50 (CBP-BRD; presence of high concentrations of CRBN C-terminal thalidomide binding domain, read-out: ternary IC50 (IC50[CRBN])): 45 nM
Kd (EP300-BRD; BROMOscan): > 10000 nM
loss of potency compared to parent compound 3, EP300 (EP300-BRD; BROMOscan KD ratio): > 400 fold
ternary complex formation in cells with CRBN and CBP-BRD (CRBN and CBP-BRD): good ternary complex formation
Compound: Cc1cc2c(NC(=O)c3cc(NC(=O)CCCCCCCCCCNc4cccc5c4C(=O)N(C4CCC(=O)NC4=O)C5=O)cc(-c4ccn(C)n4)c3)cccc2nn1 (stereo not shown) [dCE-2]
crebbp and ep300 expression [2]: mild upregulation
